From patent US6642251B1, “Geometrically restricted 2-indolinone derivatives as modulators of protein kinase activity” (Sugen, Inc., priority 1998, dated 2003)

Tested on: A375 cells (melanoma)
Assay: A375 sc xenograft animal model
Type: in vivo, athymic mice (BALB/c, nu/nu)
Details: for % inhibition: vs vehicle
Source text: The ability of human tumors to grow as xenografts in athymic mice (e.g., Balb/c, nu/nu) provides a useful in vivo model for studying the biological response to therapies for human tumors. Since the first successful xeno-transplantation of human tumors into athymic mice, (Rygaard and Poylsen, 1969, Acta Pathol. Microbial. Scand., 77:758-760), many different human tumor cell lines (e.g., mammary, lung, genitourinary, gastro-intestinal, head and neck, glioblastoma, bone, and malignant melanomas) have been transplanted and successfully grown in nude mice. The following assays may be used to determine the level of activity, specificity and effect of the different compounds of the present invention. Three general types of assays are useful for evaluating compounds: cellular/catalytic, cellular/biological and in vivo. The object of the cellular/catalytic assays is to determine the effect of a compound on the ability of a TK to phosphorylate tyrosines on a known substrate in a cell. The object of the cellular/biological assays is to determine the effect of a compound on the biological response stimulated by a TK in a cell. The object of the in vivo assays is to determine the effect of a compound in an animal model of a particular disorder such as cancer.
Suitable cell lines for subcutaneous xenograft experiments include C6 cells (glioma, ATCC #CCL 107), A375 cells (melanoma, ATCC #CRL 1619), A431 cells (epidermoid carcinoma, ATCC #CRL 1555), Calu 6 cells (lung, ATCC #HTB 56), PC3 cells (prostate, ATCC #CRL 1435), SKOV3TP5 cells and NIH 3T3 fibroblasts genetically engineered to overexpress EGFR, PDGFR, IGF-1R or any other test kinase. The following protocol can be used to perform xenograft experiments:
Female athymic mice (BALB/c, nu/nu) are obtained from Simonsen Laboratories (Gilroy, Calif.). All animals are maintained under clean-room conditions in Micro-isolator cages with Alpha-dri bedding. They receive sterile rodent chow and water ad libitum.
Cell lines are grown in appropriate medium (for example, MEM, DMEM, Ham's F10, or Ham's F12 plus 5%-10% fetal bovine serum (FBS) and 2 mM glutamine (GLN)). All cell culture media, glutamine, and fetal bovine serum are purchased from Gibco Life Technologies (Grand Island, N.Y.) unless otherwise specified. All cells are grown in a humid atmosphere of 90-95% air and 5-10% CO2 at 37° C. All cell lines are routinely subcultured twice a week and are negative for mycoplasma as determined by the Mycotect method (Gibco).
Cells are harvested at or near confluency with 0.05% Trypsin-EDTA and pelleted at 450×g for 10 min. Pellets are resuspended in sterile PBS or media (without FBS) to a particular concentration and the cells are implanted into the hindflank of the mice (8-10 mice per group, 2-10×10^6 cells/animal). Tumor growth is measured over 3 to 6 weeks using venier calipers. Tumor volumes are calculated as a product of length×width×height unless otherwise indicated. P values are calculated using the Students t-test. Test compounds in 50-100 μL excipient (DMSO, or VPD:D5W (U.S. Pat. No. 5,610,173 to Sxhwartz, et al.), can be delivered by IP injection at different concentrations generally starting at day one after implantation.

## COc1ccc2c(c1)C(CC(=O)[O-])CC2=C1C(=O)Nc2ccccc21.[Na+] (stereo not drawn) [Compound 13, [6-Methoxy-3-(2-oxo-1,2-dihydroindol-3-ylidene)-indan-1-yl]acetic Acid Sodium Salt]
50 mg/kg/day
  Average Tumor Volume: 569.9 mm3
  % inhibition: 24.6%
100 mg/kg/day
  Average Tumor Volume: 324.4 mm3
  % inhibition: 57.1%
200 mg/kg/day
  Average Tumor Volume: 278.8 mm3
  % inhibition: 63.1%
